From patent US20120088667A1, “SAFENING AGENT” (priority 2009, published 2012)
Where two headings read alike, the source gives them in different places.

Assays:
[1] = tested on: NAVY BEAN cv Mogex; assay: Root nodulation and safening, navy bean, compost of low pH (Example 7.3); settings: compost of low pH (5.0-5.5)
Source text: (§1) The safener/safening system and the fertiliser were applied to the crops either simultaneously or sequentially.
(§2) Co=100% Cobalt Sulphate (20 g per litre and per hectare). FF1=20 g per litre Cobalt Sulphate (as per Co above) plus “Miracle-Gro” at xl recommended rate (applied at 15 g per 2.5 sq metres). Miracle-Gro contains: 24% N, 4% P, 13% K, plus 0.02% B, 0.03% Cu, 0.19% Fe, 0.05% Mn, 0.001% Mo and 0.03% Zn. FF2=20 g per litre Cobalt Sulphate plus Miracle-Gro at ×2 recommended rate. SAF: at least one from class (f) each at <3 g/l, plus at least one from class (c).
NAVY BEAN cv Mogex. Scored/Counted+28 Days after Spraying. Sown in Compost of low pH (5.0-5.5) on 29 Apr. 2008. Spray Date (VC)=27 May, V1 Date=16 June. Scored/Measured on 11 July. Each treatment represents the mean value of 12 plants, within four replicates. No inoculum applied.

[2] = tested on: Winter wheat cv Alchemy; assay: Safening of herbicides (Chlorotoluron, Isoproturon, Flumioxazin), winter wheat
Source text: (§3) Safening systems were applied to crops of oilseed rape and winter treated with various herbicides (Bifenox (with insecticide), Carbetamide, Propaquizafop, Chlorotoluron, Isoproturon, Flumioxazin). The safening system and the herbicide were applied to the crops either simultaneously or sequentially.
(§4) Oilseed rape: cv Excalibur, sown 26 Apr. 2008, at two seeds per 9 cm pot, sown in normal pH multi-purpose compost. Date of spraying: 6 June; Dates of measurement/scoring: 13 June, 20 June, 5 July. Winter wheat: cv Alchemy, sown 23 Apr. 2008, at seven seeds per 9 cm pot, sown in normal pH multi-purpose compost. Date of spraying: 24 May; Dates of measurement/scoring: 31 May, 7 June, 21 June. SAF: at least one from class (f) each at <3 g/l, plus at least one from class (c).
(§5) Statistical Layout: Randomised Complete Block trials, under glasshouse conditions, United Kingdom.

[3] = tested on: PEA cv Ragtime; assay: Root nodulation and safening, pea, compost of normal pH (Example 7.6); settings: compost of normal pH (6.5)
Source text: as §1, §2
PEA—TRIAL 7.6—cv Ragtime. Dates as per Example 7.5 above, but sown in compost of normal pH (6.5). […] No inoculum was applied.

[4] = tested on: Maize cv Sundance (i.e. not Roundup Ready); settings: no glyphosate
[5] = tested on: Winter Wheat cv Limerick
Source text: (§6) The safening system and the fungicide were applied to the crops either simultaneously or sequentially, either as foliar applications or as a seed treatment.
(§7) Winter Barley: cv Saffron, sown 27 May 2008, at four/five seeds per 9 cm pot, sown in standard multi-purpose compost of pH 6.5. Date of spraying: 23 July; Dates of measurement/scoring: 30 July, 14 August, 22 August. Sprayed: mid-tillering phase (GS23). Winter Wheat: cv Limerick, sown 4 Jun. 2008, at four/five seeds per 9 cm pot, sown in standard multi-purpose compost of pH 6.5. Date of spraying: 23 July; Dates of measurement/scoring: 30 July, 14 August, 23 August. Sprayed: mid-tillering phase (GS23). Maize: cv Sundance, sown 25 May 2008, at 10 seeds per 25 cm pot, in John Innes No 1 compost. Date of measurement/assessment: 15 June. Seed treatment trial. Randomised block, mean of five replicates.
(§8) SAF: at least one from class (f) each at <3 g/l, plus at least one from class (c).

[6] = tested on: Winter Barley cv Saffron; settings: for Phytotoxicity (0-9) (0 = Dead) + 14 Days / Phytotoxicity (0-9) (0 = Dead) + 28 Days: score 0-9, 0 = Dead; for Vigour (0-9) (9 = Most Vigour) + 14 days: score 0-9, 9 = Most Vigour; for Vigour (0-9) + 28 Days: score 0-9, +28 days
Source text: as §6, §7, §8

[7] = tested on: Oilseed rape cv Excalibur; settings: for Greenness (0-9) (9 = Deeper Green) + 14 Days / Vigour (0-9) (9 = Most Vigour) + 14 days / Greenness (0-9) + 28 Days / Vigour (0-9) + 28 Days: score 0-9
Source text: as §3, §4, §5

[8] = tested on: Winter Wheat cv Limerick; assay: Safening of fertilisers, pot trial: phytotoxicity and vigour scores, winter wheat; assay type: in vivo; settings: for Phytotoxicity (0-9) (0 = Dead) + 14 Days / Phytotoxicity (0-9) (0 = Dead) + 28 Days: score 0-9, 0 = dead; for Vigour (0-9) (9 = Most Vigour) + 14 days / Vigour (0-9) + 28 Days: score 0-9
Source text: The safening system and the fertilizer were applied either simultaneously or sequentially.
Sprayed: mid-tillering phase (GS23). Winter Wheat: cv Limerick, sown 4 Jun. […] Sprayed: mid-tillering phase (GS23). Lettuce: cv Set, sown 10 Jul. 2008, at one seed per pot, in John Innes No 1 compost. Date of spraying: 30 July; Dates of measurement: 7 August, 14 August, 28 August. Sprayed: 2 true leaf stage.

[9] = Table 2.4, winter wheat, fungicide Prochloraz, score 0-9, 0 = Dead
[10] = Table 2.5, winter wheat, fungicide Flutriafol, score 0-9, 0 = Dead
[11] = score 0-9, 0 = dead, foliar, fungicides Fenpropidin and Flutriafol, Table 2.6
[12] = score 0-9, 9 = most vigour, foliar, fungicides Fenpropidin and Flutriafol, Table 2.6
[13] = Table 2.1, fungicide Prochloraz
[14] = Table 2.2, fungicide Flutriafol
[15] = Table 2.3, fungicides Fenpropidin and Flutriafol
[16] = herbicide Bifenox (with insecticide), Table 3.1
[17] = herbicides Carbetamide and Propaquizafop, Table 3.2
[18] = +28 days, herbicide Bifenox (with insecticide), Table 3.1
[19] = +28 days, herbicides Carbetamide and Propaquizafop, Table 3.2
[20] = Table 1.4, winter wheat, phosphite fertiliser (KP)
[21] = Table 1.5, winter wheat, KP/ATS
[22] = Table 1.6, winter wheat, general fertilisers

Nc1ccccc1C(=O)O [AN, anthranilic acid]
6.9: Vigour Score (0-9) (V1) ([3]; V1, score 0-9)
9.0: Phytotoxicity (0-9) (0 = Dead) + 14 Days ([2]; Table 3.3, no herbicide) | Vigour (0-9) (9 = Most Vigour) + 14 days ([2]; Table 3.3, no herbicide) | Phytotoxicity (0-9) (0 = Dead) + 14 Days ([2]; Table 3.4, no herbicide) | Vigour (0-9) (9 = Most Vigour) + 14 days ([2]; Table 3.4, no herbicide) | Phytotoxicity (0-9) (0 = Dead) + 14 Days ([2]; Table 3.5, no herbicide) | Vigour (0-9) (9 = Most Vigour) + 14 days ([2]; Table 3.5, no herbicide) | Phytotoxicity (0-9) (0 = Dead) + 14 Days ([7]; score 0-9, 0 = dead, herbicide Bifenox (with insecticide), Table 3.1) | Phytotoxicity (0-9) (0 = Dead) + 14 Days ([7]; score 0-9, 0 = dead, herbicides Carbetamide and Propaquizafop, Table 3.2) | Vigour (0-9) (9 = Most Vigour) + 14 days [7, 16] | Vigour (0-9) (9 = Most Vigour) + 14 days [7, 17]
8.5: Vigour (0-9) + 28 Days [8, 20] | Vigour (0-9) + 28 Days [8, 21] | Vigour (0-9) + 28 Days [8, 22]
23.4: Nodules Per Plant (VC) ([1]; VC)
5.2: Nodulation Score (0-9) (V1) ([3]; V1, score 0-9) | Nod Score (0-9) (VC) ([3]; VC, score 0-9)
7.5: Phytotoxicity (0-9) (0 = Dead) + 14 Days [5, 9] | Phytotoxicity (0-9) (0 = Dead) + 14 Days [5, 10] | Phytotoxicity (0-9) (0 = Dead) + 14 Days [5, 11] | Phytotoxicity (0-9) (0 = Dead) + 14 Days [6, 13] | Phytotoxicity (0-9) (0 = Dead) + 14 Days [6, 14] | Phytotoxicity (0-9) (0 = Dead) + 14 Days [6, 15] | Phytotoxicity (0-9) (0 = Dead) + 14 Days [8, 20] | Phytotoxicity (0-9) (0 = Dead) + 14 Days ([8]; Table 1.5, winter wheat, thiosulphate and phosphite fertilisers (KP/ATS)) | Phytotoxicity (0-9) (0 = Dead) + 14 Days ([8]; Table 1.6, winter wheat, general NPK fertilisers (GEN + KP, GENEX))
17.2: Nodules Per Plant (V1) ([3]; V1, no inoculum)
20.9: Nodules Per Plant (V1) ([1]; V1, +28 days after spraying, no inoculum)
3.3: Nodulation Score (0-9) (V1) ([1]; V1, score 0-9)
7.0: Phyto-Toxicity Score (0-9) (V1) ([3]; V1, score 0-9) | Vigour (0-9) (9 = Most Vigour) + 14 days ([5]; Table 2.4, winter wheat, fungicide Prochloraz, score 0-9, 9 = Most Vigour) | Vigour (0-9) (9 = Most Vigour) + 14 days ([5]; Table 2.5, winter wheat, fungicide Flutriafol, score 0-9, 9 = Most Vigour) | Vigour (0-9) (9 = Most Vigour) + 14 days [5, 12] | Vigour (0-9) (9 = Most Vigour) + 14 days [6, 13] | Vigour (0-9) (9 = Most Vigour) + 14 days [6, 14] | Vigour (0-9) (9 = Most Vigour) + 14 days [6, 15]
17.1: Nodules Per Plant (VC) ([3]; VC)
6.0: Phyto-Toxicity Score (0-9) (V1) ([1]; V1, score 0-9) | Vigour Score (0-9) (V1) ([1]; V1, score 0-9)
3.8: Nod Score (0-9) (VC) ([1]; VC, score 0-9)
8.0: Greenness (0-9) (9 = Deeper Green) + 14 Days ([2]; Table 3.3, no herbicide) | Greenness (0-9) + 28 Days ([2]; Table 3.3, no herbicide) | Phytotoxicity (0-9) + 28 Days ([2]; Table 3.3, no herbicide) | Vigour (0-9) + 28 Days ([2]; Table 3.3, no herbicide) | Greenness (0-9) (9 = Deeper Green) + 14 Days ([2]; Table 3.4, no herbicide) | Greenness (0-9) + 28 Days ([2]; Table 3.4, no herbicide) | Phytotoxicity (0-9) + 28 Days ([2]; Table 3.4, no herbicide) | Vigour (0-9) + 28 Days ([2]; Table 3.4, no herbicide) | Greenness (0-9) (9 = Deeper Green) + 14 Days ([2]; Table 3.5, no herbicide) | Greenness (0-9) + 28 Days ([2]; Table 3.5, no herbicide) | Phytotoxicity (0-9) + 28 Days ([2]; Table 3.5, no herbicide) | Vigour (0-9) + 28 Days ([2]; Table 3.5, no herbicide) | Phytotoxicity (0-9) (0 = Dead) + 14 Days ([4]; scale 0-9, 0=dead, 9=least phytotoxicity, 14 days after spraying) | Phytotoxicity (0-9) (0 = Dead) + 28 Days ([4]; scale 0-9, 0=dead, 9=least phytotoxicity, 28 days) | Phytotoxicity (0-9) (0 = Dead) + 41 days ([4]; scale 0-9, 0=dead, 9=least phytotoxicity, 41 days) | Vigour (0-9) + 14 Days ([4]; scale 0-9, 0=least vigour, 9=most vigour, 14 days) | Vigour (0-9) + 28 Days ([4]; scale 0-9, 0=least vigour, 9=most vigour, 28 days) | Vigour (0-9) + 41 Days ([4]; scale 0-9, 0=least vigour, 9=most vigour, 41 days) | Phytotoxicity (0-9) (0 = Dead) + 28 Days [5, 9] | Vigour (0-9) + 28 Days ([5]; Table 2.4, winter wheat, fungicide Prochloraz, score 0-9) | Phytotoxicity (0-9) (0 = Dead) + 28 Days [5, 10] | Vigour (0-9) + 28 Days ([5]; Table 2.5, winter wheat, fungicide Flutriafol, score 0-9) | Phytotoxicity (0-9) (0 = Dead) + 28 Days [5, 11] | Vigour (0-9) + 28 Days [5, 12] | Phytotoxicity (0-9) (0 = Dead) + 28 Days [6, 13] | Vigour (0-9) + 28 Days [6, 13] | Phytotoxicity (0-9) (0 = Dead) + 28 Days [6, 14] | Vigour (0-9) + 28 Days [6, 14] | Phytotoxicity (0-9) (0 = Dead) + 28 Days [6, 15] | Vigour (0-9) + 28 Days [6, 15] | Phytotoxicity (0-9) (0 = Dead) + 28 Days ([7]; score 0-9, 0 = dead, +28 days, herbicide Bifenox (with insecticide), Table 3.1) | Phytotoxicity (0-9) + 28 Days ([7]; score 0-9, 0 = dead, +28 days, herbicides Carbetamide and Propaquizafop, Table 3.2) | Greenness (0-9) (9 = Deeper Green) + 14 Days [7, 16] | Greenness (0-9) (9 = Deeper Green) + 14 Days [7, 17] | Greenness (0-9) + 28 Days [7, 18] | Vigour (0-9) + 28 Days [7, 18] | Greenness (0-9) + 28 Days [7, 19] | Vigour (0-9) + 28 Days [7, 19] | Phytotoxicity (0-9) (0 = Dead) + 28 Days [8, 20] | Vigour (0-9) (9 = Most Vigour) + 14 days [8, 20] | Phytotoxicity (0-9) (0 = Dead) + 28 Days [8, 21] | Vigour (0-9) (9 = Most Vigour) + 14 days [8, 21] | Phytotoxicity (0-9) (0 = Dead) + 28 Days [8, 22] | Vigour (0-9) (9 = Most Vigour) + 14 days [8, 22]
